For four molecules, Activity results are on record in ChEMBL document CHEMBL1153457, “Effects of structural analogues of the substrate and allosteric regulator of the human mitochondrial NAD(P)+-dependent malic enzyme” (Bioorg Med Chem, 2009).

The source made the active and inactive calls. The calls are words filed in the database; no cut-off is given here.

The species entered for assay [1] is Homo sapiens. In words: Inhibition of human mitochondrial NADP-ME E59L mutant expressed in Escherichia coli XL-1 assessed as residual enzyme activity by spectrophotometry in presence of fumarate.
The species entered for assay [2] is Homo sapiens. In words: Inhibition of human mitochondrial NADP-ME E59L mutant expressed in Escherichia coli XL-1 assessed as residual enzyme activity by spectrophotometry in absence of fumarate.
The species entered for assay [3] is Homo sapiens. In words: Activation of human mitochondrial NADP-ME E59L mutant expressed in Escherichia coli XL-1 by spectrophotometry.

With `O=C(O)/C=C\C(=O)O`, the outcome in the assay filed under Homo sapiens [1] and in the assay filed under Homo sapiens [2] was Active. `O=C(O)CC(=O)O`: the result in the assay filed under Homo sapiens [1] and in the assay listed under Homo sapiens [2] was Active. With `O=C(O)/C=C/C(=O)O`, the outcome in the assay filed under Homo sapiens [3] was inactive.

`O=C(O)/C=C/CC(=O)O`: the result in the assay filed under Homo sapiens [1] and in the assay filed under Homo sapiens [2] was Active.
